{"source": "paper PMC7402176", "about": "“Highlighting the Biological Potential of the Brown Seaweed Fucus spiralis for Skin Applications” (Antioxidants, 2020)", "target": "T1, collagenase", "T1 construct": "gene colG; commercial kit enzyme (EnzChek Gelatinase/Collagenase Assay Kit); native bacterial preparation, usually a mixture of collagenases", "assay": "fluorescence assay, fluorescein-conjugate gelatin cleavage", "type": "biochemical", "conditions": "positive control; EnzChek kit", "source_text": "fluorescence assay, fluorescein-conjugate gelatin cleavage on collagenase", "data": [{"smiles": "O=C(O[C@@H]1Cc2c(O)cc(O)cc2O[C@@H]1c1cc(O)c(O)c(O)c1)c1cc(O)c(O)c(O)c1", "note": "[(−)-Epigallocatechin gallate]", "values": [{"measurement": "Collagenase", "value": "4.8 (4.1–5.5) µg/mL"}]}]}
